In PMC2949542 (Analytical biochemistry, 2010):
Like-named read-outs stand apart in the source and are kept apart here.

Columns and labels:
[1] = biological target: T1, carbonic anhydrase II (CAII) (Bos taurus, UniProt P00921); conditions: read-out: KD (μM) ProteOn (2); BioRad ProteOn XPR36; cited from earlier work
[2] = biological target: T1, carbonic anhydrase II (CAII); conditions: read-out: KD (μM) Biacore (8); benchmark study on Biacore platforms; cited from earlier work
[3] = biological target: T1, carbonic anhydrase II (CAII); assay: SPR; conditions: for kon: read-out: ka
[4] = biological target: T1, carbonic anhydrase II (CAII); assay: SPR standard injection, ADP over negative-control CAII surface; type: binding; conditions: standard injections, two-fold dilution series from 300 uM, 25 °C

T1 sequence (P00921 whole entry): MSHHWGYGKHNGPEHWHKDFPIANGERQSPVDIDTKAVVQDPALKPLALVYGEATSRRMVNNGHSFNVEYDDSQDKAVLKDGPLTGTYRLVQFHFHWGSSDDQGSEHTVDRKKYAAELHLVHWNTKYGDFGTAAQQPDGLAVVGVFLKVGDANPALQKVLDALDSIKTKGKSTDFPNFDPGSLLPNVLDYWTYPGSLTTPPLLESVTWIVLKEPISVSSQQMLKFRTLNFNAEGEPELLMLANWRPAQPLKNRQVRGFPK

Row | SMILES | Kd [1] [µM] | Kd [2] [µM] | Kd [3] [µM] | kon [3] [M⁻¹ s⁻¹] | binding on negative-control CAII surface [4]
1 | NS(=O)(=O)c1ccccc1 [Benzenesulfonamide] | 1.1 | 0.8 | 0.97 | 135000 | –
2 | CN(C)c1cccc2c(S(N)(=O)=O)cccc12 [Dansylamide] | 0.8 | 0.4 | – | – | –
3 | Nc1ncnc2c1ncn2[C@@H]1O[C@H](COP(=O)(O)OP(=O)(O)O)[C@@H](O)[C@H]1O [ADP, adenosine diphosphate] | – | – | – | – | no reliable ADP binding was observed
4 | NCc1ccc(S(N)(=O)=O)cc1 [4-(Aminomethyl)benzenesulfonamide] | – | 3 | 5.2 | 7300 | –
5 | NS(=O)(=O)c1cccc(S(N)(=O)=O)c1 [1,3-Benzenedisulfonamide] | 0.64 | 0.8 | 0.613 | 179000 | –
